In patent US20170349532A1, “CATIONIC LIPID” (Kyowa Hakko Kirin Co., Ltd., priority 2011, published 2017):

assay: Average particle diameter of preparation (Zetasizer Nano ZS); format: physicochemical; settings: Comparative Examples 1 to 8, prepared as Example 118 with apo-b siRNA
Source text: Preparations were produced using the compounds obtained in Examples 1 to 117, as follows.
APO-B siRNA was used as the nucleic acid. APO-B siRNA suppresses expression of an apolipoprotein-B (hereinafter, “apo-b”) gene and has a sense strand with the base sequence 5′-GmUCAmUCACACmUGAAmUACCAAmU-3′ (the sugars attached to the bases appended with m are 2′-O-methyl-substituted riboses), and an antisense strand with the base sequence 5′-[…]-3′ (the 5′-end is phosphorylated). The sense strand and the antisense strand were obtained from Nippon EGT, GeneDesign, Inc., Invitrogen or Hokkaido System Science Co., Ltd., and annealed to prepare the nucleic acid (hereinafter, “apo-b siRNA”).
A solution comprising the constituent components was prepared by dissolving each of the weighed samples in 90 vol % ethanol in 8.947/1.059/5.708/13.697 mmol/L [compounds 1 to 117 obtained in Examples 1 to 117/sodium 1,2-dimyristoyl-sn-glycero-3-phosphoethanolamine-N-(methoxy(polyethylene glycol)-2000) (PEG-DMPE Na,N-(carbonylmethoxypolyethylene glycol 2000)-1,2-dimyristoyl-sn-glycero-3-phosphoethanolamine sodium salt, NOF Corporation)/distearoylphosphatidyl choline (DSPC, 1,2-distearoyl-sn-glycero-3-phosphocholine, NOF Corporation)/cholesterol (Avanti Polar Lipids)]. Separately, apo-b siRNA/distilled water (24 mg/mL) was diluted with a Tris-EDTA buffer (200 mM Tris-HCl, 20 mM EDTA, Invitrogen) and a 20 mM citric acid buffer (pH 5.0) to prepare a 1.5 mg/mL apo-b siRNA aqueous solution (2 mM Tris-EDTA/20 mM citric acid buffer, pH 5.0).
The resulting lipid solution was heated to 37° C., and a 100-μL portion was transferred to a preparation container. The apo-b siRNA aqueous solution (100 μL) was then added thereto while being stirred. Then, a 20 mM citric acid buffer (containing 300 mM NaCl, pH 6.0; 200 μL) was added to the lipid nucleic acid mixed suspension (200 μL) while being stirred. The siRNA concentration was brought to 10 μM by dropping a Dulbecco phosphate buffer (DPBS, Invitrogen; 662 μL), and preparations (compositions comprising compounds 1 to 117 and the nucleic acid) were obtained.
The average particle diameter of the complex between the cationic lipis and the nucleic acid in each preparation was measured with a particle diameter measurement device (Malvern; Zetasizer Nano ZS).

Compound	average particle diameter of the complex between the cationic lipis and the nucleic acid in the preparation [nm]
CCCCC/C=C\C/C=C\CCCCCCCC(=O)OCCN(C)CCOC(=O)CCCCCCC/C=C\C/C=C\CCCCC [Compound A-5, N-Methyl-N,N-bis(2-((9Z,12Z)-1-oxooctadec-9,12-dienyloxy)ethyl)amine, reference compound]	136.4
CCCCC/C=C\C/C=C\CCCCCCCC(=O)O[C@@H]1CN(C)C[C@H]1OC(=O)CCCCCCC/C=C\C/C=C\CCCCC [Compound A-3, (3R,4R)-1-Methylpyrrolidine-3,4-diyl di((9Z,12Z)-octadec-9,12-dienoate), reference compound]	141.0

same assay, conditions: average particle diameter of cationic lipid/nucleic acid complex; Example 118 preparation: compound/PEG-DMPE Na/DSPC/cholesterol with apo-b siRNA

Compound	Particle diameter of Preparetion [nm]
CCCCCCCC/C=C\CCCCCCCCCCO[C@@H]1CN(C)C[C@H]1OCCCCCCCCCC/C=C\CCCCCCCC [Compound 49, (3R,4R)-3,4-bis((Z)-Icos-11-enyloxy)-1-methylpyrrolidine]	141.7
CCCCC/C=C\C/C=C\CCCCCCCCO[C@@H]1CN(CCCO)C[C@H]1OCCCCCCCC/C=C\C/C=C\CCCCC [Compound 56, 3-((3R,4R)-3,4-bis((9Z,12Z)-Octadec-9,12-dienyloxy)pyrrolidin-1-yl)propan-1-ol]	120.3
CCCC/C=C\CCCCCCCCOCCNCCOCCCCCCCC/C=C\CCCC [Compound 68, bis(2-((Z)-Tetradec-9-enyloxy)ethyl)amine]	132.4
CCCCCC/C=C\CCCCCCCCOC[C@@H]1CN(C)C[C@H]1COCCCCCCCC/C=C\CCCCCC (relative stereo) [Compound 51, trans-3,4-bis(((Z)-Hexadec-9-enyloxy)methyl)-1-methylpyrrolidine]	123.9
CCCCCCCC/C=C\CCCCCCCCOCC[N+](C)(C)CCOCCCCCCCC/C=C\CCCCCCCC.[Cl-] [Compound 80, N,N-diMethyl-N,N-bis(2-((Z)-octadec-9-enyloxy)ethyl)aminium chloride]	110.3
CCCCC/C=C\C/C=C\CCCCCCCCCCOC[C@@H]1CN(C)C[C@H]1COCCCCCCCCCC/C=C\C/C=C\CCCCC (relative stereo) [Compound 108, trans-3,4-bis(((11Z,14Z)-Icos-11,14-dienyloxy)methyl)-1-methylpyrrolidine]	144.9
CCCCC/C=C\C/C=C\CCCCCCCCO[C@@H]1CN(CCC(=O)N(C)C)C[C@H]1OCCCCCCCC/C=C\C/C=C\CCCCC [Compound 58, 3-((3R,4R)-3,4-bis((9Z,12Z)-Octadec-9,12-dienyloxy)pyrrolidin-1-yl)-N,N-dimethylpropanamide]	151.8
CCCCCCCCCCCCCCO[C@@H]1CN(C)C[C@H]1OCCCCCCCCCCCCCC [Compound 13, (3R,4R)-1-Methyl-3,4-bis(tetradecyloxy)pyrrolidine]	150.2
CCCCC/C=C\C/C=C\CCCCCCCC(=O)OC[C@@H]1C[N+](C)(C)C[C@H]1COC(=O)CCCCCCC/C=C\C/C=C\CCCCC.[Cl-] (relative stereo) [Compound 114, trans-1,1-Dimethyl-3,4-bis(((9Z,12Z)-octadec-9,12-dienoyloxy)methyl)pyrrolidinium chloride]	108.2
CCCCCCCC/C=C\CCCCCCCCOCCN(CCOCCCCCCCC/C=C\CCCCCCCC)CC(O)CO (centres unmarked) [Compound 82, 3-(bis(2-((Z)-Octadec-9-enyloxy)ethyl)amino)propan-1,2-diol]	125.7
CCCCC/C=C\C/C=C\CCCCCCCCO[C@@H]1CN(C2CCN(C)CC2)C[C@H]1OCCCCCCCC/C=C\C/C=C\CCCCC [Compound 60, 4-((3R,4R)-3,4-bis((9Z,12Z)-Octadec-9,12-dienyloxy)pyrrolidin-1-yl)-1-methylpiperidine]	125.3
CCCCCCCC/C=C\CCCCCCCCOC[C@@H]1CN(C)C[C@H]1COCCCCCCCC/C=C\CCCCCCCC (relative stereo) [Compound 106, trans-1-Methyl-3,4-bis(((Z)-octadec-9-enyloxy)methyl)pyrrolidine]	139.2
CCCCC/C=C\C/C=C\CCCCCCCCO[C@H]1C[N+](C)(C)C[C@@H]1OCCCCCCCC/C=C\C/C=C\CCCCC [Compound 52, (3S,4S)-1,1-Dimethyl-3,4-bis((9Z,12Z)-octadec-9,12-dienyloxy)pyrrolidinium chloride]	118.9
CCCCC/C=C\C/C=C\CCCCCCCCO[C@@H]1CNC[C@H]1OCCCCCCCC/C=C\C/C=C\CCCCC [Compound 1, (3R,4R)-3,4-bis((9Z,12Z)-Octadec-9,12-dienyloxy)pyrrolidine]	137.4
CCCCCCCC/C=C\CCCCCCCCO[C@@H]1CNC[C@H]1OCCCCCCCC/C=C\CCCCCCCC [Compound 4, (3R,4R)-3,4-bis((Z)-Octadec-9-enyloxy)pyrrolidine]	160.6
CCCCC/C=C\C/C=C\CCCCCCCC(=O)O[C@@H]1CN(C(=O)CCN(C)C)C[C@H]1OC(=O)CCCCCCC/C=C\C/C=C\CCCCC [Compound 29, (3R,4R)-1-(3-(dimethylamino)propanoyl)pyrrolidine-3,4-diyl di((9Z,12Z)-octadec-9,12-dienoate)]	122.5
CCCCC/C=C\C/C=C\CCCCCCCCO[C@H]1C[N+](C)(C)C[C@H]1OCCCCCCCC/C=C\C/C=C\CCCCC.[Cl-] [Compound 21, (3R,4,5)-1,1-Dimethyl-3,4-bis((9Z,12Z)-octadec-9,12-dienyloxy)pyrrolidinium chloride]	112.4
CCCCC/C=C\C/C=C\CCCCCCCCOC[C@@H]1CNC[C@H]1COCCCCCCCC/C=C\C/C=C\CCCCC (relative stereo) [Compound 102, trans-3,4-bis(((9Z,12Z)-Octadec-9,12-dienyloxy)methyl)pyrrolidine]	133.0

Next, values leading:

Particle diameter of Preparetion [nm]	Compound
146.8	CCCCCCCC/C=C\CCCCCCCC(=O)OCCNCCOC(=O)CCCCCCC/C=C\CCCCCCCC [Compound 73, N,N-bis(2-((Z)-Octadec-9-enoyloxy)ethyl)amine]
135.1	CCCCC/C=C\C/C=C\CCCCCCCC(=O)OCCN(CCOC(=O)CCCCCCC/C=C\C/C=C\CCCCC)C(=O)[C@@H](N)CCCCN [Compound 100, (S)-2,6-Diamino-N,N-bis(2-((9Z,12Z)-octadec-9,12-dienoyloxy)ethyl)hexanamido]
155.9	CCCCC/C=C\C/C=C\CCCCCCCC(=O)OCCN(CCOC(=O)CCCCCCC/C=C\C/C=C\CCCCC)C(=O)OCCCN(C)C [Compound 117, 3-(Dimethylamino)propyl bis(2-((9Z,12Z)-1-oxooctadec-9,12-dienyloxy)ethyl)carbamate]
128.3	CCCCCCCC/C=C\CCCCCCCC(=O)OCCN(CCOC(=O)CCCCCCC/C=C\CCCCCCCC)C(=O)CN [Compound 95, 2-Amino-N,N-bis(2-((Z)-octadec-9-enoyloxy)ethyl)acetamide]
154.1	CCCCCCCC/C=C\CCCCCCCC(=O)OCCN(CCOC(=O)CCCCCCC/C=C\CCCCCCCC)C(=O)OCCCN(C)C [Compound 116, 3-(Dimethylamino)propyl bis(2-((Z)-1-oxooctadec-9-enyloxy)ethyl)carbamate]
133.0	CCCCCCCC/C=C\CCCCCCCC(=O)OCCN(CCOC(=O)CCCCCCC/C=C\CCCCCCCC)C(=O)[C@@H](N)CCCCN [Compound 97, (S)-2,6-Diamino-N,N-bis(2-((Z)-octadec-9-enoyloxy)ethyl)hexanamido]
108.7	CCCCCCCC/C=C\CCCCCCCC(=O)O[C@@H]1C[N+](C)(C)C[C@H]1OC(=O)CCCCCCC/C=C\CCCCCCCC.[Cl-] [Compound 23, (3R,4R)-1,1-Dimethyl-3,4-bis((Z)-octadec-9-enoyloxy)pyrrolidinium chloride]
103.5	CCCCCCCC/C=C\CCCCCCCC(=O)OC[C@@H]1C[N+](C)(C)C[C@H]1COC(=O)CCCCCCC/C=C\CCCCCCCC.[Cl-] (relative stereo) [Compound 113, trans-1,1-Dimethyl-3,4-bis(((Z)-octadec-9-enoyloxy)methyl)pyrrolidinium chloride]
129.6	CCCCCCCC/C=C\CCCCCCCC(=O)OC[C@@H]1CN(C)C[C@H]1COC(=O)CCCCCCC/C=C\CCCCCCCC (relative stereo) [Compound 109, trans-1-Methyl-3,4-bis(((Z)-octadec-9-enoyloxy)methyl)pyrrolidine]
